Reference: US5770611A, “Indole derivatives as 5HT1 -like agonists” (Pfizer Inc., priority 1994, dated 1998)
pEC50: −log10 of the molar value.

Experiments:
[1] = molecular target: T1, "5-HT1 -like" receptor (dog isolated saphenous vein strip) (Canis lupus familiaris, UniProt P79250); assay: contraction of isolated dog saphenous vein strip ("5-HT1 -like" receptor agonist activity); type: cell-based; settings: for pEC50: concentration causing 50% of the maximum contraction effected by the compound; for RELATIVE POTENCY EC50 (compound)/EC50 (5-HT): ratio to 5-HT (higher = less potent)
T1 construct: on dog isolated saphenous vein strip; from tissue; host or cells: dog isolated saphenous vein strip
T1 sequence (P79250 whole entry): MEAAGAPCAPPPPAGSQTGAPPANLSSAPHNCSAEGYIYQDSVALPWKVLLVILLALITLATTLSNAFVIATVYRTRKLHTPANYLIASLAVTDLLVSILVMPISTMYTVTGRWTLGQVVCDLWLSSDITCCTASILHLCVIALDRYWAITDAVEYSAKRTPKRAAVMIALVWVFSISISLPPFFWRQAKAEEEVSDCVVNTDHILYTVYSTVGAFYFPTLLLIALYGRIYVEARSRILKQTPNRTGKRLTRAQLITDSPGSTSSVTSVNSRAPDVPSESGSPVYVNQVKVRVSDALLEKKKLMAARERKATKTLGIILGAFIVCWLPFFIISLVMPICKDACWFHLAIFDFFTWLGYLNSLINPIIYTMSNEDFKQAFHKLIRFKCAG
Text: The following Table illustrates the in vitro activities for a range of the compounds of the invention on dog isolated saphenous vein strip. EC50 represents the concentration of compound which causes 50% of the maximum contraction effected by it.

[2] = molecular target: T1, "5-HT1 -like" receptor (dog isolated saphenous vein strip); settings: antagonism of the agonist-induced contraction; cited from earlier work

SMILES	pEC50 [1]	RELATIVE POTENCY EC50 (compound)/EC50 (5-HT) [1]	block of contraction of dog saphenous vein strip [2]
CC(C)(O)CCc1ccc2[nH]cc(C[C@H]3CCCN3CC3CCCNC3=O)c2c1 (single isomer, unassigned) [Example 9A]	5.52	71	–
CC(C)(O)CCc1ccc2[nH]cc(C[C@H]3CCCN3CC3CCN(Cc4ccccc4)C3)c2c1 (stereo partly drawn) [Example 1]	6.21	11.0	–
CSc1ccc2c(c1)C(N1CCN(C)CC1)Cc1ccccc1S2 (stereo not drawn) [methiothepin]	–	–	This effect can be blocked by methiothepin
CC(C)(O)CCc1ccc2[nH]cc(C[C@H]3CCCN3CC3CCCNC3=O)c2c1 (single isomer, unassigned) [Example 9B]	5.74	78	–
CC(C)(O)CCc1ccc2[nH]cc(C[C@H]3CCCN3C[C@H]3CCCN3S(C)(=O)=O)c2c1 [Example 5, 5-(3-Hydroxy-3-methyl-1-butyl)-3-[N-(N-methane-sulphonyl-2(R)-pyrrolidinylmethyl)-2(R)-pyrrolidinylmethyl]-1H-indole]	6.74	2.4	–
